This is an account of results in article PMC6453916, “Radical-mediated C-S bond cleavage in C2 sulfonate degradation by anaerobic bacteria” (Nature Communications, 2019).

The target in series [1] is T1, TauF (BwTauF, sulfoacetaldehyde reductase) (Bilophila wadsworthia, UniProt E5Y946).
T1 construct: gene sarD; codon-optimised, His6-TEV (HT) vector, E. coli
T1 sequence (E5Y946 1-387): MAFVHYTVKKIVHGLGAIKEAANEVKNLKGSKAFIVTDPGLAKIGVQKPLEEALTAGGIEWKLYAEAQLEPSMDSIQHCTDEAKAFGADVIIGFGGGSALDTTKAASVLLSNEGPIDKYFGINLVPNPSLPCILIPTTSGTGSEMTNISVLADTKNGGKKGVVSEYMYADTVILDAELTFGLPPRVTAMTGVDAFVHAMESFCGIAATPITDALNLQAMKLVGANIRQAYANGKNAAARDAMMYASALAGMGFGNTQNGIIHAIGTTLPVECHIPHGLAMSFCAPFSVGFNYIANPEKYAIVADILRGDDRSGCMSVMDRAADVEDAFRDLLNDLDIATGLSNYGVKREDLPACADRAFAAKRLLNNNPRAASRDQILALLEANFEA
Description: NADH oxidation at […] nm. It counts as biochemical. The note with it: 5 mM sulfoacetaldehyde (introduced as bisulfite adduct), 0.5 mM NADH, 0.1 M Tris pH 7.5, 0.1 M KCl.

In series [2] the target is T2, DpIseK (substrate-binding subunit of the IseG-associated TRAP transporter) (Desulfovibrio piger, UniProt A0A1K1LFE7).
T2 construct: gene DESPIGER_1592; soluble periplasmic subunit, codon-optimised, expressed as His6-MBP-TEV fusion; MBP tag cleaved and removed before ITC
Description: isothermal titration calorimetry. For orientation: In ITC the heat of successive injections is recorded.

For series [3], the target named is IseG (−23 a.a.), isethionate sulfo-lyase from Desulfovibrio vulgaris Hildenborough with an N-terminal 23-a.a. truncation (Desulfovibrio vulgaris Hildenborough) (UniProt Q727N1). Description: SEC; 2.5 mg/mL IseG (−23 a.a.), 2 mL on a Superdex 200 column (300 mL), buffer D (10 mM HEPES/KOH pH 7.4, 250 mM KCl, 10 mM BME), 3 mL/min; mass from elution volume against molecular weight markers (observed 196 kDa, monomer calculated 91.3 kDa).

Substrate in the series “purified protein”: O=S(=O)(O)CCO
The experiment in a line: purified protein. It counts as biochemical, Nitratidesulfovibrio vulgaris. Conditions: IseG activated by IseH, SAM and Ti(III) citrate; anaerobic, room temperature, 250 nM IseG.

T2 sequence (A0A1K1LFE7 24-332): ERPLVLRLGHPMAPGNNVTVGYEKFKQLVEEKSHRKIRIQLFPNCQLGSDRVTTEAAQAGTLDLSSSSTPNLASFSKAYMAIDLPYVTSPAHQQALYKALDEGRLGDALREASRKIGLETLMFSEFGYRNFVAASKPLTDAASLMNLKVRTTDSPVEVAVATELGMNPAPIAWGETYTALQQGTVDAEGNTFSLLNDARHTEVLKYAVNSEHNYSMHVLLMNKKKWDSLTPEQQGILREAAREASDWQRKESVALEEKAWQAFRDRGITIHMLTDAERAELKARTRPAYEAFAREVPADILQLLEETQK

With `NC(=O)C1=CN([C@@H]2O[C@H](COP(=O)(O)OP(=O)(O)OC[C@H]3O[C@@H](n4cnc5c(N)ncnc54)[C@H](O)[C@@H]3O)[C@@H](O)[C@H]2O)C=CC1` [NADH], the “NADH oxidation at 340 nm” value in series [1] was “demonstrates that BwTauF is a sulfoacetaldehyde reductase”. Regarding `O=S(=O)(O)CCO` [isethionate], in series [2], the Kd was found to be 500 nM. Turning to `O=CCS(=O)(=O)O` [sulfoacetaldehyde], the “NADH oxidation at 340 nm” value in series [1] was “TauF, catalyzed NADH-dependent reduction of sulfoacetaldehyde”.

As for “IseG (−23 a.a.), isethionate sulfo-lyase from Desulfovibrio vulgaris Hildenborough with an N-terminal 23-a.a. truncation (from UniProt Q727N1 24-828) (enzyme)”, the stoichiometry N in series [3] is 2.

B1: IseG (GUF, isethionate sulfo-lyase) (Nitratidesulfovibrio vulgaris str. Hildenborough) (protein)
chain: MQCCNQLSPHEQRLQDKIEGKVDRYRATHERVFTILESFDNTRPRIDVERAKYFTESMKATEGQPLPLRWAKALMHIAENMTVYIDDHQLICGRAGYQGRYGVLYPELDGDFLGTAIEDLPNRAESPFAITPEDARVVVEEIAPFWKGKTYHEALNLALPADVHKLTYDDPQGLMSRFIVNETSSFRSSIQWVHDYEKVLKRGFRSIKEEALEKIAALDPMSPCDNVEKRPFLEAIVIVCDAIILWAKRHAKLAAELAAKETDPTRKRELETMAEICAWVPENPARTFHEAVQAQWFTQVFSRIEQKTGTIVSNGRMDQYFWPFYEKDLAEGRITEDSALELLECMWVGMAQYVDLYISPTGGAFNEGYAHWEAVTIGGQTPEGRDATNDLTYLFLKSKREFPLHYPDLAARIHSRSPERYLWEVAETIKDGSGFPKLINDEEVVPLYVSKGATFAEALDYAVSGCTEARMPNRDTYTSGGAYINFAAALEMVLYNGKMLKYGDTDLGAHTGDPCEFKTWEEFWNAYVTQHHLFLKTAFVQQHIINNLRARHFAQPMGSSLHDLCMKHCLDLHTPQIPEGINLGYFEYMGFGTVVDSLSAIKKLVFEDKKLTMGELIEALKCNFEGKEDIQQLLKSAPCYGNNDDYADSIARDIDALSVKYGRRYSPELGMHNDVRYVPFTSHVPFGRVVSATPNGRKAWSALSDGSSASHGADVNGPTAILQSNFNSKNYGMRDRAARMLNIKFTPKCVEGEEGSQKLVSFIRTFCDLKLWHVQFNVINKETLLAAQRDPEKYRNLIVRIAGYSAYFVDLSPDLQNDLIARTGHDVM
notes: pET-28a(+)-His6-IseG, codon-optimised, full length, His tag kept, E. coli BL21(DE3); dimer; glycyl radical installed by IseH/SAM/Ti(III) citrate
Take B1: in the series “purified protein”, the Km amounted to 44.8 ± 3.5 mM and the kcat amounted to 91.6 ± 3.3 s⁻¹.

What is called Kd is the constant that tells how readily two partners part at equilibrium. A low value points to higher affinity. The stoichiometry N is a count of units in the complex or per binding partner. One may read the Km as the concentration of substrate that gives half-maximal velocity. For orientation: kcat means the number of substrate molecules converted per active site and unit of time at saturation.
